Consider 16 molecules from ChEMBL document CHEMBL1130454, “Synthesis and antirheumatic activity of novel tetrahydroquinoline-8-carboxylic acid derivatives” (1997).

Where only a bound is given, the exact number is not on record here.

Holding throughout (type): functional
Test [1] relates to Rattus norvegicus. Nature of the test: Tested for edema suppression rate with respect to control value in adjuvant arthritis rat at a dose of 10 mg/Kg; Range = 21-30%.
Test [2] has as its system Rattus norvegicus. Nature of the test: Tested for edema suppression rate with respect to control value in adjuvant arthritis rat; Range = 0-20%.
In test [3] the test system is Rattus norvegicus. Nature of the test: Tested for edema suppression rate with respect to control value in adjuvant arthritis rat at a dose of 50 mg/Kg; Range = 21-30%.
Test [4] deals with Rattus norvegicus. Description: Tested for edema suppression rate with respect to control value in adjuvant arthritis rat at a dose of 50 mg/Kg; Range = 31-40%.
In test [5] the test system is Rattus norvegicus. Nature of the test: Tested for edema suppression rate with respect to control value in adjuvant arthritis rat at a dose of 10 mg/Kg; Range = 31-40%.
For test [6], the system named is Rattus norvegicus. Description: Tested for edema suppression rate with respect to control value in adjuvant arthritis rat at a dose of 10 mg/Kg; Range = 41-50%.
For test [7], the system named is Rattus norvegicus. Nature of the test: Tested for edema suppression rate with respect to control value in adjuvant arthritis rat at a dose of 50 mg/Kg; Range = >50%.

The inhibition in vivo is how much of the control response was suppressed. What is called Inhibition is the share of the control response that was lost under treatment.

For `Nc1ccc([N+](=O)[O-])cc1C(=O)O`, in the test on Rattus norvegicus [1], the inhibition in vivo at 10 mg/kg is 30%.

Consider `O=C(O)c1cc([N+](=O)[O-])cc2c1NC(c1ccccc1)CC2` (stereo unspecified), for which the Inhibition with Rattus norvegicus [2] is 20%.

As for `O=C(O)c1cc(Cl)cc2c1NCCS2`, in the test on Rattus norvegicus [2], the Inhibition turned out to be 20%.

As for `O=C(O)c1cc([N+](=O)[O-])ccc1NCc1ccccc1`, the Inhibition in the test on Rattus norvegicus [2] is 20%.

As to `O=C(O)c1cc([N+](=O)[O-])cc2c1NCC2`, the Inhibition in the test on Rattus norvegicus [2] is 20%.

On to `O=C(O)c1cc(Br)c(Cl)c2c1NCCO2`, for which, in the test with Rattus norvegicus [3], the inhibition in vivo at 50 mg/kg is 30%.

Take `O=C(O)c1cc2c(c(C(=O)O)c1)NCCS2`: in the test with Rattus norvegicus [2], the Inhibition is 20%.

`CS(=O)(=O)Nc1cc2c(c(C(=O)O)c1)NCCCC2`: in the test with Rattus norvegicus [4], the inhibition in vivo at 50 mg/kg is 40%.

Consider `CNc1ccc([N+](=O)[O-])cc1C(=O)O`, for which the inhibition in vivo at 50 mg/kg in the test with Rattus norvegicus [4] stood at 40%.

Take `O=C(O)c1cc2c(c(C(=O)O)c1)NCCC2`: in the test on Rattus norvegicus [5], the inhibition in vivo at 10 mg/kg came to 40%.

Consider `O=C(O)Cc1cc2c(c(C(=O)O)c1)NCCC2`, for which, in the test on Rattus norvegicus [6], the inhibition in vivo at 10 mg/kg was found to be 50%.

As to `Nc1ccc(Cl)cc1C(=O)O`, the Inhibition in the test with Rattus norvegicus [2] came out at 20%.

With `O=C(O)c1cc([N+](=O)[O-])cc2c1NCCO2`, the Inhibition in the test on Rattus norvegicus [2] worked out at 20%.

Turning to `O=C(O)c1cc([N+](=O)[O-])cc2c1NCCC2`, in the test with Rattus norvegicus [7], the inhibition in vivo at 50 mg/kg was over 50%.

Turning to `O=C(O)c1cccc2c1NC(c1ccccc1)CO2` (stereo unspecified), the inhibition in vivo at 10 mg/kg in the test on Rattus norvegicus [5] amounted to 40%.

As for `O=C(O)c1cc([N+](=O)[O-])cc2c1NCCCC2`, the inhibition in vivo at 10 mg/kg with Rattus norvegicus [1] stood at 30%.
